The nature of data set [1]: In vivo pharmacokinetics in rats. As to conditions: male SD rats; for Oral DNAUC (AUCPO/Dose) / bioavailability: oral 2 mg/kg; for clearance / half-life / Vd / bioavailability / Cmax: rat, plasma; for clearance / half-life / Vd / Cmax: intravenous 1 mg/kg or oral 2 mg/kg; for clearance: read-out: Cl (clearance rate); for half-life: read-out: T1/2 (half-life) (converted); for Vd: read-out: Vdss (distribution volume); for bioavailability: intravenous 1 mg/kg, read-out: F % (oral bioavailability); for Cmax: single administration. From the text:
Study on the In Vivo Pharmacokinetics in Rats
The purpose of the experiment: Male SD rats were used as test animals and were given a single administration to determine the plasma concentration of the compound and evaluate the pharmacokinetic behavior.
Experimental method: Six healthy adult male SD rats were divided into 2 groups, with 3 rats in an intravenous injection group and 3 rats in an oral administration group. In the intravenous injection group, the test compound was mixed with an appropriate amount of vehicle (10% N-methyl pyrrolidone (NMP)/10% polyethylene glycol-15 hydroxystearate (available from solutol)/80% water), then vortexed and sonicated to prepare 0.2 mg/mL clear solution, which was filtered by microporous membrane. In the oral administration group, 10% N-methyl pyrrolidone (NMP)/10% polyethylene glycol-15 hydroxy stearate (available from solutol)/80% water was used as a vehicle and mixed with the test compound, then vortexed and sonicated to prepare 0.40 mg/mL clear solution. The rats were given intravenous administration at a dose of 1 mg/kg or oral administration at a dose of 2 mg/kg. Whole blood was collected at a certain period of time to prepare the plasma. The drug concentration of the plasma was analyzed by LC-MS/MS method, and the pharmacokinetic parameters were calculated using Phoenix WinNonlin software (Pharsight Company, USA).

Data set [2] relates to SD rats. The experiment in a line: Oral glucose tolerance test (OGTT) in rats, first time. The class given is in vivo. As to conditions: first study, male SD rats, 10 mg/kg single intragastric administration; for OGTT blood glucose level AUC0-2 hr: glucose 2 g/kg; for Urine glucose level / Urine volume: urine 0-24 h. The method, then:
Experimental Example 3. Study on In Vivo Efficacy of Oral Glucose Tolerance Test (OGTT) in Rats: Study on the In Vivo Efficacy of Oral Glucose Tolerance Test (OGTT) in Rats for the First Time
(§1) The experimental animals were allowed to adapt to the environment in the animal room for one week after they arrived.
(§2) The animals fasted in the metabolic cage for 18 hours, then were given drugs or vehicle (2 ml/kg) according to the above table, and subsequently were immediately given 50% glucose solution (2 g/kg, 4 ml/kg).
(§3) 2 hours after the administration of glucose solution, feed intake was restored. Blood samples were taken at 0 min, 15 min, 30 min, 45 min, 60 min and 120 min respectively, and urine samples were collected at 0-24 h to test blood glucose, urine glucose (mg/200 g) and urine volume respectively.
(§4) All values are represented as averages. Statistical analysis was performed using Graphpad Prism 6 one-way analysis of variance and Tukey's multiple comparison test. P value of less than 0.05 is considered statistically significant.

In data set [3] the test system is db/db mice. Nature of the data set: Fasting blood glucose in diabetic db/db mice. The class given is in vivo. Conditions: fasted from 10:00, mean±S.E.M. The method, then:
(§5) Experimental Example 4: Study on the In Vivo Pharmacodynamics in Diabetic Db/Db Mice
(§6) The animals were kept in an animal breeding room with strictly controlled environmental conditions after they arrived. The animal breeding room was maintained at a temperature of 20-24° C. and a humidity of 40-70%. The temperature and humidity in the feeding room were monitored in real time by a hygrothermograph, and the temperature and humidity were recorded twice daily (one in the morning and the other in the afternoon). The lighting of the animal feeding room was controlled by an on-off electronic timing system, with lights for 12 hours and dark for 12 hours daily (turned on at 7:00 a.m. and turned off at 19:00 p.m). The mice were raised in separate cages and were given free access to feed (reproductive feed 17053113 for rats and mice, available from Beijing Keao Xieli Feed Co., Ltd.) and water during the experiment.
(§7) During the experiment, the animals were administrated with the corresponding vehicles or drugs according to the group with an administration time of 16:00 and an administration period of 8 weeks.
(§8) The dose was 5 mg/kg from week 1 to week 4; and the dose was 10 mg/kg from week 5 to week 8.
(§9) Random and fasting blood glucose levels were measured once a week.
Fasting blood glucose test: The mice fasted from 10:00 a.m., and blood glucose level was firstly measured at 16:00. Then the mice were administered with the drugs, and 2 hours later blood glucose level was measured again, and then feed intake was restored.
(§10) All of the data were entered into an Excel document and expressed in the form of mean±S.E.M. The differences between groups were compared using graphpad Prism 6 software and one-way analysis of variance (ANOVA). P value of less than 0.05 is considered a significant difference.

For data set [4], the system named is db/db mice. The experiment in a line: Glycosylated hemoglobin (HbA1c) in diabetic db/db mice. The class given is in vivo. As to conditions: for HbA1c (%): fasted 6 hours; for Rate of Decline of HbA1c (%): vs. vehicle control group. On the procedure: as §5, §7, §8
At weeks 4 and 8 of the experiment, the animals fasted for 6 hours, and blood samples were collected to measure glycosylated hemoglobin.
as §10

The subject of data set [5] is db/db mice. The experiment in a line: Oral glucose tolerance test (OGTT) at week 8 in diabetic db/db mice. Type of data set: in vivo. As to conditions: 5 mg/kg weeks 1-4, 10 mg/kg weeks 5-8, once daily, fasted 6 hours, glucose 2 g/kg, mean±S.E.M. The method, then:
as §5, §7, §8
At the end of the experiment (i.e. the last 3 days of administration), the animals fasted for 6 hours, then were given a single administration of glucose aqueous solution at a dose of 2 g/kg. The time of the glucose administration was recorded as 0 min. Blood glucose levels of the animals were detected at 0 min before the glucose administration, and 15 min, 30 min, 90 min and 120 min after the glucose administration, respectively. The glucose tolerance curve was drawn according to the data of blood glucose levels vs time, and the area under the curve (AUC) was calculated. The administration was given at 16:00.
as §10

For data set [6], the system named is db/db mice. The experiment in a line: Random blood glucose in diabetic db/db mice. As to conditions: mean±S.E.M. The class given is in vivo. On the procedure:
as §5, §6, §7, §8, §9
The random blood glucose level was measured at 10:00 a.m.
as §10

The test system of data set [7] is SD rats. The experiment in a line: Oral glucose tolerance test (OGTT) in rats, second time. Conditions: second study, male SD rats, 10 mg/kg single intragastric administration. Type of data set: in vivo. On the procedure:
Study on the In Vivo Efficacy of Oral Glucose Tolerance Test (OGTT) in Rats for the Second Time:
as §1, §2, §3, §4

Where [8] appears, read: Week 1, 5 mg/kg intragastric once daily.
The mark [9] stands for this setting: Week 2, 5 mg/kg intragastric once daily.
The mark [10] stands for this setting: Week 3, 5 mg/kg intragastric once daily.
Setting [11] is: Week 4, 5 mg/kg intragastric once daily.
[12] abbreviates: Week 5, 10 mg/kg intragastric once daily (5 mg/kg weeks 1-4).
[13] abbreviates: Week 6, 10 mg/kg intragastric once daily (5 mg/kg weeks 1-4).
Where [14] appears, read: Week 7, 10 mg/kg intragastric once daily (5 mg/kg weeks 1-4).
Setting [15] is: Week 8, 10 mg/kg intragastric once daily (5 mg/kg weeks 1-4).
The mark [16] stands for this setting: Week 8, 5 mg/kg weeks 1-4, 10 mg/kg weeks 5-8, once daily.

Results on three molecules are retold here after patent publication US20200331950A1, “SGLTS INHIBITOR AND APPLICATION THEREOF” (SHANDONG DANHONG PHARMACEUTICAL CO., LTD., priority 2018, published 2020).

Marks after values point to notes of the source that are not given here.

On to `CS[C@H]1OC(c2ccc(Cl)c(Cc3ccc(C4=CCC(F)(F)CC4)cc3)c2)[C@H](O)[C@@H](O)[C@@H]1O` (stereo partly drawn) [WXD001], for which, in data set [1], the “Oral DNAUC (AUCPO/Dose)” value was 1823 nM · h/mpk, the clearance was 10.1 mL/min/kg, the half-life is 4.59 h and the Vd came to 3.86 L/kg. Besides, in data set [1], the bioavailability (in general, the share of a dose that reaches the circulation, judged against a reference dose that is usually intravenous) turned out to be 59% and the Cmax – broadly, the peak of the concentration-time curve – turned out to be 410 nM. In the data set with SD rats [2], the OGTT blood glucose level AUC0-2 hr was 832 mmol/L/min; the Urine glucose level is recorded as 2181.4**** mg/200 g, BW; the Urine volume is recorded as 37.58**** mL/200 gBW.

As to `CS[C@H]1O[C@@H](c2ccc(C)c(Cc3ccc(C4=CCC(F)(F)CC4)cc3)c2)[C@H](O)[C@@H](O)[C@@H]1O` [WXD003], the Fasting blood glucose in the data set on db/db mice [3] (setting [8]) was 14.8 ± 2.34; in the data set with db/db mice [3] (setting [9]), 19.9 ± 1.32; with db/db mice [3] (setting [10]), 15.8 ± 1.48; with db/db mice [3] (setting [11]), 14.3 ± 1.29; in the data set with db/db mice [3] (setting [12]), 17.4 ± 1.72; in the data set with db/db mice [3] (setting [13]), 10.9 ± 1.42. Besides, the results for the Fasting blood glucose in the data set on db/db mice [3] (setting [14]) and with db/db mice [3] (setting [15]) were 11.7 ± 1.30 and 13.0 ± 1.36, respectively. The “Oral DNAUC (AUCPO/Dose)” value in data set [1] came to 1013 nM · h/mpk. In addition, the clearance in data set [1] stood at 14.5 mL/min/kg. Moreover, in data set [1], the half-life was 2.56 h. In addition, in data set [1], the Vd was found to be 2.94 L/kg. For the same molecule, the bioavailability in data set [1] came out at 47.7%. The molecule also returned a Cmax in data set [1] of 391 nM. Further, the OGTT blood glucose level AUC0-2 hr with SD rats [2] was found to be 797 mmol/L/min; with db/db mice [5], 2810 ± 155 mmol/L/min. In addition, the Urine glucose level in the data set with SD rats [2] is 1636.4**** mg/200 g, BW. In addition, the Urine volume in the data set on SD rats [2] turned out to be 24.58 mL/200 gBW. For the same molecule, the figures for the “HbA1c (%)” value in the data set with db/db mice [4] (setting [11]) and with db/db mice [4] (setting [16]) were 5.7*** % and 5.9**** %, respectively. In addition, the “Rate of Decline of HbA1c (%)” value is −32% in the data set with db/db mice [4] (setting [11]) and −39% with db/db mice [4] (setting [16]). The Random blood glucose is 14.3 ± 2.28 in the data set on db/db mice [6] (setting [8]); 15.7 ± 0.88 in the data set on db/db mice [6] (setting [9]); 13.6 ± 1.40 with db/db mice [6] (setting [10]); 13.3 ± 0.81 in the data set on db/db mice [6] (setting [11]); 14.1 ± 1.28 in the data set with db/db mice [6] (setting [12]); 10.1 ± 1.26 with db/db mice [6] (setting [13]). The figures for the Random blood glucose in the data set with db/db mice [6] (setting [14]) and with db/db mice [6] (setting [15]) were 12.5 ± 1.23 and 14.4 ± 1.77, respectively.

On to `CCc1ccc([C@@H]2O[C@H](SC)[C@@H](O)[C@H](O)[C@H]2O)cc1Cc1ccc(C2=CCC(F)(F)CC2)cc1` [WXD010], for which the Fasting blood glucose is 14.7 ± 2.50 with db/db mice [3] (setting [8]); 14.4 ± 1.47 in the data set with db/db mice [3] (setting [9]); 15.8 ± 1.40 in the data set on db/db mice [3] (setting [10]); 14.9 ± 1.24 with db/db mice [3] (setting [11]); 15.9 ± 0.79 with db/db mice [3] (setting [12]); 11.0 ± 1.67 in the data set with db/db mice [3] (setting [13]). For the same molecule, the Fasting blood glucose is 9.6 ± 0.91 in the data set on db/db mice [3] (setting [14]) and 8.1 ± 0.51 with db/db mice [3] (setting [15]). The “Oral DNAUC (AUCPO/Dose)” value in data set [1] is recorded as 2320 nM · h/mpk. Moreover, in data set [1], the clearance was found to be 8.06 mL/min/kg. In addition, the half-life in data set [1] was 4.5 h. The Vd in data set [1] was found to be 2.48 L/kg. In addition, the bioavailability in data set [1] was found to be 56.4%. In data set [1], the Cmax was found to be 356 nM. In addition, the OGTT blood glucose level AUC0-2 hr amounted to 720 mmol/L/min with SD rats [7] (glucose 2 g/kg) and 2120 ± 99.2 mmol/L/min with db/db mice [5]. Also, the Urine glucose level in the data set on SD rats [7] (urine 0-24 h) is on record as 2118.7**** mg/200 g, BW. The Urine volume with SD rats [7] (urine 0-24 h) is 20.0**** mL/200 g, BW. Moreover, the “HbA1c (%)” value in the data set with db/db mice [4] (setting [11]) is 5.8*** %; in the data set on db/db mice [4] (setting [16]) it was 5.1**** %. For the same molecule, the “Rate of Decline of HbA1c (%)” value was −31% in the data set with db/db mice [4] (setting [11]) and −47% with db/db mice [4] (setting [16]). The Random blood glucose with db/db mice [6] (setting [8]) is 16.7 ± 1.00; in the data set with db/db mice [6] (setting [9]), 13.5 ± 2.46; in the data set with db/db mice [6] (setting [10]) it was 14.1 ± 0.97; in the data set on db/db mice [6] (setting [11]), 15.4 ± 1.34; in the data set on db/db mice [6] (setting [12]) it was 13.2 ± 1.09; in the data set on db/db mice [6] (setting [13]), 10.6 ± 1.48. Moreover, the Random blood glucose in the data set with db/db mice [6] (setting [14]) is reported as 9.8 ± 0.82; in the data set with db/db mice [6] (setting [15]) it was 9.2 ± 0.68.
